Measured values reported in ChEMBL document CHEMBL1147236, “Semiplenamides A-G, fatty acid amides from a Papua New Guinea collection of the marine cyanobacterium Lyngbya semiplena” (J Nat Prod, 2003).

Test system: RBL-2H3
Details: Rattus norvegicus
Description: Activity at AMT in rat RBL-2H3 cells

Structure (SMILES): CCCCC/C=C\C/C=C\C/C=C\C/C=C\CCCC(=O)NCCO
- Km: 9.3 µM
